Results reported in article PMC8421423, “Cellular model system to dissect the isoform-selectivity of Akt inhibitors” (Nature Communications, 2021).
Values joined by “and” are separate entries in the source; they are usually repeats but may differ in a detail not shown here. Identical values can stand only once. Like-named read-outs stand apart in the source and are kept apart here.

What was measured:
parental Ba/F3 cells = experiment: CellTiter-Glo cell viability assay; type: cell-based, murine
Protocol: On day 0, cells were plated into white 384-well cell culture plates (Greiner Bio-One) using a Multidrop reagent dispenser (Thermo Fisher Scientific) at cell numbers that ensure linear and optimal luminescent signal intensity (Ba/F3myr-Akt1: 600 cells/well, Ba/F3myr-Akt2: 800 cells/well, Ba/F3myr-Akt3: 800 cells/well). […] Cell viability was analyzed on day 4 using the CellTiter-Glo Assay (Promega) as per the manufacturer’s instructions. […] All experimental points were measured in duplicates for each plate and were replicated in at least three plates.

Ba/F3^myr-Akt1 cells = experiment: CellTiter-Glo cell viability assay; conditions: for Log ratio EC50 [Akt] / EC50 [Akt], Akt1 / Akt2: cell viability assay Ba/F3 myr-Akt cells, log units
Ba/F3^myr-Akt2 cells = experiment: CellTiter-Glo cell viability assay
Ba/F3^myr-Akt3 cells = experiment: CellTiter-Glo cell viability assay; conditions: for Log ratio EC50 [Akt] / EC50 [Akt], Akt3 / Akt2: cell viability assay Ba/F3 myr-Akt cells, log units
Akt1 [1] = biological target: T1, Akt1 (Homo sapiens, UniProt P31749); experiment: STK HTRF KinEASE activity-based assay (IC50); conditions: for Log ratio IC50 [Akt] / IC50 [Akt], Akt1 / Akt2: biochemical activity based assay, log units
Akt2 [2] = biological target: T2, Akt2 (Homo sapiens, UniProt P31751); experiment: STK HTRF KinEASE activity-based assay (IC50)
Akt3 = Akt3 (Homo sapiens, UniProt Q9Y243); experiment: STK HTRF KinEASE activity-based assay (IC50)
Protocol: The biochemical half maximal inhibitory concentrations (IC50) were determined with the STK HTRF KinEASE assay (Cisbio) according to the manufactor’s instructions. Briefly: 5 µL Kinase solution and 2.5 µL inhibitor solution (8% DMSO in HTRF buffer) were incubated for 1 h before the reaction was started by addition of 2.5 µL starting solution containing ATP and substrate peptide. […] After reaction completion (Akt1: 60 min, Akt2: 20 min, Akt3: 15 min), 10 µL of stop solution were added. […] The quotient of both intensities were recorded at eight different inhibitor concentrations and data fit to a Hill 4-parameter equation with Quattro software suite (Quattro Research GmbH, Martinsried, Germany). Each reaction was performed in duplicates and at least three independent determinations of each IC50 were made.

Akt1 [3] = biological target: T1, Akt1; experiment: PhosphoSens continuous fluorometric kinetic enzyme assay
Protocol: (§1) By addition of either 8 nM Akt1, 2 nM Akt2, or 5 nM Akt3 (final concentrations) the reactions were initiated. […] Afterwards the kobs-values were plotted versus the inhibitor concentrations [I] and then fit to the following hyperbolic Eq.

Akt2 [4] = biological target: T2, Akt2; experiment: as above
Protocol: as §1

[5] = Mus musculus, BaF3, CTG, parental BaF3 cell line, read-out: EC50 BaF3
[6] = Mus musculus, BaF3, parental cells, mean of replicates, read-out: CTG BaF3, Mean
[7] = Mus musculus, BaF3, parental cells, single replicates, read-out: CTG BaF3, individual determinations
[8] = parental cells, single replicates, read-out: CTG BaF3, individual determinations
[9] = read-out: CTG BaF3myr-Akt1, individual determinations, single replicates
[10] = Mus musculus, read-out: CTG BaF3myr-Akt2, Mean, mean of replicates
[11] = read-out: CTG BaF3myr-Akt2, individual determinations, single replicates
[12] = Mus musculus, read-out: CTG BaF3myr-Akt3, Mean, mean of replicates
[13] = read-out: CTG BaF3myr-Akt3, individual determinations, single replicates
[14] = HTRF IC50 Akt1, Mean, mean of replicates
[15] = HTRF IC50 Akt1, individual determinations, single replicates
[16] = IC50 Akt1, HTRF, ATP at KM, 1 h preincubation
[17] = HTRF IC50 Akt2, Mean, mean of replicates
[18] = HTRF IC50 Akt2, individual determinations, single replicates
[19] = IC50 Akt2, HTRF, ATP at KM, 1 h preincubation
[20] = HTRF IC50 Akt3, Mean, mean of replicates
[21] = HTRF IC50 Akt3, individual determinations, single replicates
[22] = IC50 Akt3, HTRF, ATP at KM, 1 h preincubation
[23] = Ki Akt1, Mean, mean of replicates
[24] = Ki Akt1, individual determinations, single replicates
[25] = read-out: kinact /Ki Akt1, Mean, mean of replicates
[26] = read-out: kinact Akt1, individual determinations, single replicates
[27] = Ki Akt2, Mean, mean of replicates
[28] = Ki Akt2, individual determinations, single replicates
[29] = read-out: kinact /Ki Akt2, Mean, mean of replicates
[30] = read-out: kinact /Ki Akt2, individual determinations, single replicates
[31] = read-out: kinact Akt2, individual determinations, single replicates

Chain of Akt3 (Q9Y243 whole entry): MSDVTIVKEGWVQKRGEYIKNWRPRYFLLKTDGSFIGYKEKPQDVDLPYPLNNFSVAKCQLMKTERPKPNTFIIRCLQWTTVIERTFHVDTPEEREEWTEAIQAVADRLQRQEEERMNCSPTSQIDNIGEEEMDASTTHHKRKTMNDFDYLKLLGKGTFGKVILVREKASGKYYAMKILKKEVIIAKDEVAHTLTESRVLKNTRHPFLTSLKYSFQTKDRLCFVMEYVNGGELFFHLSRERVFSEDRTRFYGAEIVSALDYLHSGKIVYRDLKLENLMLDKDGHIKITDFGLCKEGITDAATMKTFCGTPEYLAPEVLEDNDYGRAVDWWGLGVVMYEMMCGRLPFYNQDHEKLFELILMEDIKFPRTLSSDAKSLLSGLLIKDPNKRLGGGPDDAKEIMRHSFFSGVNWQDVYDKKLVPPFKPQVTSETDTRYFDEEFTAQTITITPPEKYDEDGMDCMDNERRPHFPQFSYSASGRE
T1 sequence (P31749 whole entry): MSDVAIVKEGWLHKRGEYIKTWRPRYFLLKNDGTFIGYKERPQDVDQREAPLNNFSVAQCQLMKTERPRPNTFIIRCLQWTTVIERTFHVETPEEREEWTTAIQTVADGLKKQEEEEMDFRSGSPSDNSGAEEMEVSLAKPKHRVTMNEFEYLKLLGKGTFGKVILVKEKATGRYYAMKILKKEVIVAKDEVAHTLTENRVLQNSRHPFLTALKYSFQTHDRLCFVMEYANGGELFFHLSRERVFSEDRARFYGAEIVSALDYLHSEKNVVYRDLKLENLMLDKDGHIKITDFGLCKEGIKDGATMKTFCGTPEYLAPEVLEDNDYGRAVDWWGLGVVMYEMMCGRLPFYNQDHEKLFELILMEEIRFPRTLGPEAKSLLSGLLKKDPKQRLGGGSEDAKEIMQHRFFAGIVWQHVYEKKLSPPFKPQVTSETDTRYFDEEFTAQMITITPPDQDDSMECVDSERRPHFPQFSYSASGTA
T2 sequence (P31751 whole entry): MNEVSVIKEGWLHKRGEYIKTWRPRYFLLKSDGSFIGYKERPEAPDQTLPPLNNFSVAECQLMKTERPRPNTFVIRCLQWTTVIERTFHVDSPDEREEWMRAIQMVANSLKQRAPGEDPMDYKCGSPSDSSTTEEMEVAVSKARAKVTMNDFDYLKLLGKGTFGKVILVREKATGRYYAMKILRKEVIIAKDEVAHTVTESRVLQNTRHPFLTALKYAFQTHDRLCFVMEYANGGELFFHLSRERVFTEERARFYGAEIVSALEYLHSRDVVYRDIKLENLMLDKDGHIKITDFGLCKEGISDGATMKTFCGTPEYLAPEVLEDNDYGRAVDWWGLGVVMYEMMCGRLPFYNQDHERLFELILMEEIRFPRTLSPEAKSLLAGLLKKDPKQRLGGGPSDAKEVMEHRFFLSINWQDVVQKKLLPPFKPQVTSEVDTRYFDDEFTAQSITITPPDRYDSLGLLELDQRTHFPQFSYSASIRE

Work on C=CC(=O)Nc1ccc2[nH]c(=O)n(C3CCN(Cc4ccc(-c5ncc(C(=O)Nc6cccnc6)cc5-c5ccccc5)cc4)CC3)c2c1 [compound 22] yielded an EC50 (parental Ba/F3 cells; [5]) of over 30000 nM, an EC50 (parental Ba/F3 cells; [6]) of over 30000 nM and an EC50 (parental Ba/F3 cells; [7]) of over 30000 nM. For the same molecule, the EC50 (parental Ba/F3 cells; [8]) was over 30000 nM, the EC50 (Ba/F3^myr-Akt1 cells; Mus musculus, read-out: CTG BaF3myr-Akt1, individual determinations, single replicates) was over 30000 nM and the “Log ratio EC50 [Akt] / EC50 [Akt], Akt1 / Akt2” value (Ba/F3^myr-Akt1 cells) was 0.79. For the same molecule, the EC50 (Ba/F3^myr-Akt1 cells; [9]) was 15100 nM and 22500 nM, the EC50 (Ba/F3^myr-Akt2 cells; [10]) was 3680 nM and the EC50 (Ba/F3^myr-Akt2 cells; [11]) was 3180 nM and 5400 nM and 2460 nM. For the same molecule, the EC50 (Ba/F3^myr-Akt3 cells; [12]) was 18800 nM, the EC50 (Ba/F3^myr-Akt3 cells; Mus musculus, read-out: CTG BaF3myr-Akt3, individual determinations, single replicates) was 18300 nM and the “Log ratio EC50 [Akt] / EC50 [Akt], Akt3 / Akt2” value (Ba/F3^myr-Akt3 cells) was -0.71. For the same molecule, the EC50 (Ba/F3^myr-Akt3 cells; [13]) was 20700 nM and 18200 nM, the IC50 (Akt1 [1]; [14]) was 209 nM and the IC50 (Akt1 [1]; [15]) was 248 nM and 169 nM and 245 nM. The IC50 (Akt1 [1]; [16]) was 209 ± 40 nM, the “Log ratio IC50 [Akt] / IC50 [Akt], Akt1 / Akt2” value (Akt1 [1]) was 0.58 and the IC50 (Akt2 [2]; [17]) was 54.7 nM. The IC50 (Akt2 [2]; [18]) was 57.5 nM and 58.8 nM and 47.9 nM, the IC50 (Akt2 [2]; [19]) was 55 ± 5 nM and the IC50 (Akt3; [20]) was 3050 nM. For the same molecule, the IC50 (Akt3; [21]) was 2240 nM and 3090 nM and 3820 nM, the IC50 (Akt3; [22]) was 3050 ± 646 nM and the Ki (Akt1 [3]; Ki Akt1) was 9 ± 3 nM. For the same molecule, the Ki (Akt1 [3]; [23]) was 8.74 nM, the Ki (Akt1 [3]; [24]) was 12 nM and 5.9 nM and 8.3 nM and the kinact/KI (Akt1 [3]; read-out: kinact /Ki Akt1) was 26000 ± 1000 M⁻¹ s⁻¹. The kinact/KI (Akt1 [3]; [25]) was 26000 M⁻¹ s⁻¹, the kinact/KI (Akt1 [3]; read-out: kinact /Ki Akt1, individual determinations, single replicates) was 26000 M⁻¹ s⁻¹ and the kinact (Akt1 [3]; read-out: kinact Akt1) was 0.000233 s⁻¹. The kinact (Akt1 [3]; [26]) was 0.000317 s⁻¹, the “kinact Akt1, individual determinations” value (Akt1 [3]; single replicates) was 0.010 min⁻¹ and 0.013 min⁻¹ and the Ki (Akt2 [4]; Ki Akt2) was 11 ± 1 nM. The Ki (Akt2 [4]; [27]) was 10.8 nM, the Ki (Akt2 [4]; [28]) was 9.4 nM and 10.7 nM and 12.2 nM and the kinact/KI (Akt2 [4]; read-out: kinact /Ki Akt2) was 23000 ± 7000 M⁻¹ s⁻¹. For the same molecule, the kinact/KI (Akt2 [4]; [29]) was 23000 M⁻¹ s⁻¹, the kinact/KI (Akt2 [4]; [30]) was 30000 M⁻¹ s⁻¹ and the kinact (Akt2 [4]; read-out: kinact Akt2) was 0.000233 s⁻¹. The kinact (Akt2 [4]; [31]) was 0.000283 s⁻¹ and the “kinact Akt2, individual determinations” value (Akt2 [4]; single replicates) was 0.013 min⁻¹ and 0.012 min⁻¹.
C=CC(=O)Nc1ccc2[nH]c(=O)n(C3CCN(Cc4ccc(-c5ncc(C(=O)Nc6cccc(N)c6)cc5-c5ccccc5)cc4)CC3)c2c1 [compound 18] gave an EC50 (parental Ba/F3 cells; [5]) of over 30000 nM, an EC50 (parental Ba/F3 cells; [6]) of over 30000 nM and an EC50 (parental Ba/F3 cells; [7]) of over 30000 nM. For the same molecule, the EC50 (parental Ba/F3 cells; [8]) was over 30000 nM, the EC50 (Ba/F3^myr-Akt1 cells; Mus musculus, read-out: CTG BaF3myr-Akt1, Mean, mean of replicates) was 17800 nM and the “Log ratio EC50 [Akt] / EC50 [Akt], Akt1 / Akt2” value (Ba/F3^myr-Akt1 cells) was 1.08. The EC50 (Ba/F3^myr-Akt1 cells; [9]) was 14100 nM and 13100 nM and 26300 nM, the EC50 (Ba/F3^myr-Akt2 cells; [10]) was 1480 nM and the EC50 (Ba/F3^myr-Akt2 cells; [11]) was 1640 nM and 2110 nM and 691 nM. The EC50 (Ba/F3^myr-Akt3 cells; [12]) was 18200 nM, the “Log ratio EC50 [Akt] / EC50 [Akt], Akt3 / Akt2” value (Ba/F3^myr-Akt3 cells) was -1.09 and the EC50 (Ba/F3^myr-Akt3 cells; [13]) was 10300 nM and 26000 nM and 21500 nM. The IC50 (Akt1 [1]; [14]) was 90.6 nM, the IC50 (Akt1 [1]; [15]) was 106 nM and 73.7 nM and 92.3 nM and the IC50 (Akt1 [1]; [16]) was 91 ± 13 nM. For the same molecule, the “Log ratio IC50 [Akt] / IC50 [Akt], Akt1 / Akt2” value (Akt1 [1]) was 0.37, the IC50 (Akt2 [2]; [17]) was 38.4 nM and the IC50 (Akt2 [2]; [18]) was 36.7 nM and 47.9 nM and 40 nM. For the same molecule, the IC50 (Akt2 [2]; [19]) was 39 ± 6 nM, the IC50 (Akt3; [20]) was 5270 nM and the IC50 (Akt3; [21]) was 3820 nM and 6130 nM and 5850 nM. It also gave an IC50 (Akt3; [22]) of 5270 ± 1030 nM, a Ki (Akt1 [3]; Ki Akt1) of 6 ± 1 nM and a Ki (Akt1 [3]; [23]) of 6.62 nM. For the same molecule, the Ki (Akt1 [3]; [24]) was 4.2 nM and 7.8 nM and 7.9 nM, the kinact/KI (Akt1 [3]; read-out: kinact /Ki Akt1) was 32000 ± 5000 M⁻¹ s⁻¹ and the kinact/KI (Akt1 [3]; [25]) was 44000 M⁻¹ s⁻¹. It also gave a kinact (Akt1 [3]; read-out: kinact Akt1) of 0.000167 s⁻¹, a kinact (Akt1 [3]; read-out: kinact Akt1, Mean, mean of replicates) of 0.000267 s⁻¹ and a kinact (Akt1 [3]; [26]) of 0.000267 s⁻¹. The “kinact Akt1, individual determinations” value (Akt1 [3]; single replicates) was 0.014 min⁻¹ and 0.018 min⁻¹, the Ki (Akt2 [4]; Ki Akt2) was 11 ± 2 nM and the Ki (Akt2 [4]; [27]) was 11.3 nM. The Ki (Akt2 [4]; [28]) was 10.1 nM and 10.2 nM and 13.6 nM, the kinact/KI (Akt2 [4]; read-out: kinact /Ki Akt2) was 15000 ± 1000 M⁻¹ s⁻¹ and the kinact/KI (Akt2 [4]; [29]) was 15000 M⁻¹ s⁻¹. It also gave a kinact/KI (Akt2 [4]; [30]) of 15000 M⁻¹ s⁻¹, a kinact (Akt2 [4]; read-out: kinact Akt2) of 0.000167 s⁻¹ and a kinact (Akt2 [4]; [31]) of 0.00015 s⁻¹. For the same molecule, the “kinact Akt2, individual determinations” value (Akt2 [4]; single replicates) was 0.009 min⁻¹ and 0.013 min⁻¹.
